How the values were obtained:
[1] = target: T1, human recombinant 15-PGDH (Homo sapiens, UniProt P15428); test: Recombinant 15-PGDH enzymatic inhibition assay (PGDH-Lumi, NADH signal); type: biochemical; settings: for IC50: recombinant 15-PGDH, 15 min pre-incubation, 60 min reaction with PGE2 and NAD+, NADH signal
T1 sequence (P15428 1-266): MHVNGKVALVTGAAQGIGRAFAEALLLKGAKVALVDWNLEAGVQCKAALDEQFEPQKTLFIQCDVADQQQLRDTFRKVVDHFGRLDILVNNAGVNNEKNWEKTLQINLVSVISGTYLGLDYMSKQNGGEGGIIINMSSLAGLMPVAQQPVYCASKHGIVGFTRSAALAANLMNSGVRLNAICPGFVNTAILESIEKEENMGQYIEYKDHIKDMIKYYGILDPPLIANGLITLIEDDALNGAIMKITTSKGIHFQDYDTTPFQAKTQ
Method in brief: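 Recombinant 15-PGDH pre-incubated 15 min at room temperature with compound (22 concentrations, 2-fold dilutions) in 50 mM Tris pH 7.5, 0.01% Tween-20, […].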

[2] = target: T2, 15-PGDH in A549 cells (Homo sapiens, UniProt P15428); test: A549 cellular 15-PGDH assay (PGE2 accumulation, HTRF); type: cell-based; settings: interleukin-stimulated, inhibitor 24 hrs, PGE2 by competitive HTRF, read-out: A549 Cell Assay IC50
T2 construct: endogenous in cells; host or cells: A549
T2 sequence (P15428 1-266): T1 sequence (P15428 1-266)
Method in brief: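 IL-13-stimulated A549 lung carcinoma cells released PGE2, which was measured in supernatants by competitive HTRF with a Eu-cryptate anti-PGE2 antibody and labelled PGE2. Signal falls as PGE2 rises. IC50 values were derived from the binding data.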

[3] = tested on: DSS-induced colitis in C57BL/6 female mice; test: In vivo mouse DSS study - colon length; settings: for Colon length Mean: oral gavage, day 10; for Recovery % (vs vehicle) / Reduction % (vs naïve): colon length
Protocol: In this study, 12-week-old C57BL/6 female mice (Taconic, the Cambridge City) were supplemented with 2.5% DSS (MP Biomedicals, MW 36,000-50,000) in drinking water for days 0-7, and then switched to normal drinking water beginning on day 7 and continued through day 10. Mice were treated once/twice daily by oral gavage with different compounds of Formula (A) (e.g., B15S, B15R, B30R, or B41R) in different dosing levels or with vehicle solution of 2% HPMC, 1% Tween 80 (w/v) in DI water starting on day 0. Mice were sacrificed on day 10 for assessment of colon length. The DSS-induced model of colitis is a widely used animal model for studying the pathogenesis of and potential treatments for UC, which is a primary form of IBD. DSS water intake causes colonic mucosa injury and erosion, gland loss, and infiltration of proinflammatory immune cells in the colon tissue, followed by mucosal repair and tissue remodeling. This is manifested by a shortened colon, the degree of which correlates well with the severity of mucosal injury in this mouse model of DSS-induced experimental colitis.

[4] = tested on: DSS-induced colitis in C57BL/6 mice; test: In vivo mouse DSS study - histopathological analysis of colon; settings: versus DSS + vehicle
Protocol: Histopathological analysis was performed on the […] mice from the DSS study described above. Analysis was performed on mice from the B15R, B30R, or B41R groups. Briefly, mouse colon tissues were collected at necropsy, flushed with PBS, manipulated intact into individual modified Swiss rolls, placed into separate tissue cassettes and fixed for approximately 24 hours by immersion in 10% neutral buffered formalin followed by transfer to […]. Fixed tissues were routinely processed, paraffin-embedded, sectioned, mounted on glass slides and hematoxylin and eosin stained. Glass slides were scanned and digital images were accessed for histopathology evaluation. Prior to histopathology assessment, metadata for all digital images reviewed was exported from a digital pathology platform database into an Excel spreadsheet, followed by assignment of each digital image with a random number (greater than 0 and less than 1) using the RAND function in Excel. From smallest to largest random number assigned, each digital image was retrieved for evaluation using only the RTLIMS Inventory Code as the unique identifier for each digital image. Each digital image was individually reviewed without knowledge of treatment group (blinded/masked evaluation), and with the slide label image hidden when viewing digital images. […] Scoring of tissues for DSS-induced colitis was performed using a scoring system and criteria modified and adapted from BolderBioPATH, Inc./Inotiv. Ordinal data (histopathology scores) were analyzed using a non-parametric Kruskal-Wallis one-way analysis of variance test followed by a Dunn's multiple comparison test (GraphPad Prism).
The following scoring systems were used to provide histological scores: […]

Compound	IC50 [1]	IC50 [2]	Colon length Mean ([3]; 0.625 mpk, BID)	Colon length Mean ([3]; 1.25 mpk, QD)	Colon length Mean ([3]; 2.5 mpk, BID)	Colon length Mean ([3]; 5 mpk, QD)	Recovery % (vs vehicle) ([3]; 0.625 mpk, BID)	Reduction % (vs naïve) ([3]; 0.625 mpk, BID)	Recovery % (vs vehicle) ([3]; 1.25 mpk, QD)	Reduction % (vs naïve) ([3]; 1.25 mpk, QD)	Recovery % (vs vehicle) ([3]; 2.5 mpk, BID)	Reduction % (vs naïve) ([3]; 2.5 mpk, BID)	Recovery % (vs vehicle) ([3]; 5 mpk, QD)	Reduction % (vs naïve) ([3]; 5 mpk, QD)	colon length comparing to vehicle group ([3]; different doses daily)	erosion scores ([4]; all doses evaluated)	inflammation scores ([4]; all doses evaluated)	sum of histopathology scores ([4]; all doses evaluated)	Colon length Mean ([3]; 10 mpk, QD)	Colon length Mean ([3]; 20 mpk, QD)	further results
Cn1cc2cc(-c3ccc4cc([C@H](O)C5CCOCC5)sc4n3)cnc2n1 (single isomer, unassigned) [Compound B15R]	401 pM	561 pM	7.6 cm	7.84 cm	8.09 cm	7.89 cm	42.29%	14.97%	57.64%	12.28%	63.43%	8.09%	54.80%	11.72%	significant improvement of colon length	decreased severity	decreased severity	decreased severity	–	–	gland loss scores ([4]; all doses evaluated): decreased severity
Cn1cc2cc(-c3ccc4cc([C@H](O)C5CC(F)(F)C5)sc4n3)cnc2n1 (single isomer, unassigned) [Compound B30R]	159 pM	233 pM	7.622 cm	7.733 cm	7.780 cm	8.360 cm	56.343%	9.413%	62.467%	8.093%	65.039%	7.538%	97.008%	0.645%	significant improvement of colon length	decreased severity	decreased severity	decreased severity	8.110 cm	8.188 cm	Recovery % (vs vehicle) ([3]; 10 mpk, QD): 83.228%; Reduction % (vs naïve) ([3]; 10 mpk, QD): 3.616%; Recovery % (vs vehicle) ([3]; 20 mpk, QD): 87.5%; Reduction % (vs naïve) ([3]; 20 mpk, QD): 2.265%; gland loss scores ([4]; at 0.625 mg/kg BID, 1.25 mg/kg QD, 2.5 mg/kg BID and 5 mg/kg QD): decreased severity
Cn1nnc2cc(-c3ccc4cc([C@H](O)C5CCOCC5)sc4n3)cnc21 (single isomer, unassigned) [Compound B41R]	955 pM	2160 pM	–	–	–	–	–	–	–	–	–	–	–	–	–	decreased severity	decreased severity	decreased severity	7.9 cm	–	colon length comparing to vehicle group ([3]; 2.5 mg/kg and 10 mg/kg daily): significant improvement of colon length; Colon length Mean ([3]; 0.1 mpk, QD): 7.0 cm; Colon length Mean ([3]; 0.25 mpk, QD): 6.8 cm; Colon length Mean ([3]; 0.625 mpk, QD): 7.3 cm; Colon length Mean ([3]; 2.5 mpk, QD): 7.3 cm; Recovery % (vs vehicle) ([3]; 0.1 mpk, QD): 25.46%; Reduction % (vs naïve) ([3]; 0.1 mpk, QD): 14.63%; Recovery % (vs vehicle) ([3]; 0.25 mpk, QD): 11.18%; Reduction % (vs naïve) ([3]; 0.25 mpk, QD): 17.44%; Recovery % (vs vehicle) ([3]; 0.625 mpk, QD): 40.99%; Reduction % (vs naïve) ([3]; 0.625 mpk, QD): 11.59%; Recovery % (vs vehicle) ([3]; 2.5 mpk, QD): 45.34%; Reduction % (vs naïve) ([3]; 2.5 mpk, QD): 10.73%; Recovery % (vs vehicle) ([3]; 10 mpk, QD): 82.06%; Reduction % (vs naïve) ([3]; 10 mpk, QD): 3.52%; gland loss scores ([4]; at 0.1 mg/kg QD and >0.625 mg/kg QD): decreased severity
Cn1cc2cc(-c3ccc4cc([C@@H](O)C5CCOCC5)sc4n3)cnc2n1 [Compound B15S, (S)-(6-(2-methyl-2H-pyrazolo[3,4-b]pyridin-5-yl)thieno[2,3-b]pyridin-2-yl)(tetrahydro-2H-pyran-4-yl)methanol]	150000 pM	499 pM	6.51 cm	6.60 cm	6.52 cm	6.90 cm	13.4%	24.8%	17.0%	23.7%	13.7%	24.7%	29.0%	20.3%	–	–	–	–	–	6.97 cm	times less potent than B15R in the biochemical assay ([1]; S-enantiomer versus R-enantiomer): around 200; colon length comparing to vehicle group ([3]; 5 mg/kg and 20 mg/kg once daily): significant improvement of colon length; Recovery % (vs vehicle) ([3]; 20 mpk, QD): 31.9%; Reduction % (vs naïve) ([3]; 20 mpk, QD): 19.5%

Source: US20240409557A1, “5,6-FUSED AND 6,6-FUSED BICYCLIC ALCOHOLS AND ETHERS AND COMPOSITIONS FOR USE AS 15-PROSTAGLANDIN DEHYDROGENASE MODULATORS” (AMGEN INC., priority 2023, published 2024)
